Test results as given in paper PMC10541456, “A phase I, single‐center, open‐label study to investigate the absorption, distribution, metabolism and excretion of encorafenib following a single oral dose of 100 mg [ ^14C] encorafenib in healthy male subjects” (Pharmacology Research & Perspectives, 2023).
Read-outs that look alike come from different tables or passages of the source.

What was measured:
[1] = Metabolite profiles in plasma (UPLC, radioactivity detection, MS); type: in vivo, human
Procedure: To the thawed plasma samples (1.5 mL plasma/ time points) two volumes of ice‐cold acetonitrile:ethanol:acetic acid (90:10:0.1, v/v) were added, followed by vortex mixing (10 min) and sonication (10 min). After centrifugation, the supernatants (4.2 mL) were evaporated to near dryness under a gentle stream of nitrogen on a TurboVap LV (Zymark Corp.). The residues were reconstituted in 80 μL of methanol:water:acetic acid (50:50:0.1, v/v) and 45 μL were injected into the ultra‐performance liquid chromatography (UPLC) system with off‐line radioactivity detection.
Characterization and quantification of the metabolites of encorafenib in select human plasma and excreta samples were performed by the Department of DMPK (Drug Metabolism and Pharmacokinetics) at the Novartis Institutes for Biomedical Research (East Hanover, NJ, USA) using liquid chromatography (LC) coupled to radioactivity detectors and mass spectrometers (MS).
The analytical system consisted of a Waters ACQUITY UPLC system (Waters), equipped with a Phenomenex Luna PFP column (3 μm, 4.6 × 150 mm) (Phenomenex) and a guard column of the same phase, both maintained at a temperature of 30°C. The mobile phases consisted of 10 mM ammonium acetate containing 0.1% formic acid (v/v) (solvent A) and CH3CN (solvent B). The total run time was 80 min. A linear gradient elution program was used with a flow rate of 1 mL/min as described in Table 1.
The UPLC effluent was split 4:1, with […] of the total flow introduced to the mass spectrometer for mass spectral analysis and the remaining flow used for radioactivity detection.
For off‐line radioactivity detection, the eluant was collected into 96‐well Lumaplate (Packard Instrument Co) microplates using a Collect Pal fraction collector (Leap Technologies) with a collection time of 10 seconds per well. The LumaPlates were sealed after drying and counted for 10–50 min per well on a Packard Topcount microplate scintillation counter. The structural characterization of metabolites was carried out using the above UPLC profiling method coupled to a two‐channel Z‐spray (LockSprayTM) time‐of‐flight mass spectrometer (Synapt MS). Leucine enkephalin was used as the mass reference standard for exact mass measurements and was delivered via the second spray channel at a flow rate of 5 μL/minute. The mass spectrometer was operated at a resolution of ~10 000 m/ΔmFWHM with spectra being collected from 100 to 1000 amu. The ionization technique employed was positive electrospray. The sprayer voltage was kept at 3100 V and the sampling cone voltage was kept at a potential of 20 V. For the time‐of‐flight MS/MS experiments, trap energies of 25 to 45 eV and transfer energy of 15 eV were used with argon as the collision gas.
All radioactivity data were transferred to Laura software (version 4.2.2.24, Lab Logic Ltd, UK) to generate and integrate radio‐chromatograms. Radioactive peaks for quantitative analysis were manually selected from the plots. The radioactivity in the region encompassing the beginning and end of the peak was summed. All further calculations were based on radioactivity.
The percent of radioactivity (%RA) in a particular peak, Z, was calculated as follows in Equation (1): (1) %RAinZ=DPMin PeakZ/totalDPMinallintegrated peaksx100
The concentration or amount of each component was calculated as % RA (expressed as a fraction) multiplied by the total concentration of radioactivity in plasma, or the percent of dose in the excreta.

[2] = Plasma PK of non-radiolabeled encorafenib; type: in vivo, human; conditions: for Vd/F: read-out: Vz/F
[3] = system: CYP2D6; design: method as in earlier work; conditions: cited from earlier work
[4] = Safety and tolerability in healthy male subjects; type: in vivo, human
Procedure: This study (ClinicalTrials.gov ID, NCT01436656) was a single‐center, open‐label study to investigate the ADME of encorafenib after a single oral administration of 100 mg (90 μCi) [^14C] encorafenib in healthy male subjects. A total of four evaluable subjects were enrolled and dosed. The study consisted of a screening period, a baseline period, a single dose treatment and a 96 h post‐dose observation period. A safety follow‐up assessment by phone was conducted 30 days after administration of 100 mg (90 μCi) [^14C] encorafenib. Subjects completed an overnight fast of at least 10 h prior to administration of the study drug. Subjects were discharged from the clinical site provided that the subject's recovery of [^14C] encorafenib‐related radioactivity was at least 90% of the administered dose. The study duration period could be prolonged if the subject's recovery of related radioactivity was less than 90% by the fifth‐day post‐treatment or the subject had two consecutive 24‐h combined urine and fecal collections yielding ≥1% of dose.

[5] = human, plasma, oral, 100 mg, GeoMean (GeoCV%)
[6] = human, plasma, oral, 100 mg, Mean (SD)
[7] = human, plasma, oral, 100 mg, Median (Minimum–Maximum)
[8] = plasma, Median (Minimum–Maximum)
[9] = single 100 mg oral dose, 4 healthy male subjects

## COC(=O)N[C@@H](C)CNc1nccc(-c2cn(C(C)C)nc2-c2cc(Cl)cc(NS(C)(=O)=O)c2F)n1 [encorafenib]
[1]; 100 mg oral [14C] encorafenib
  Mean (range) Circulating Radioactivity in Plasma Based on AUC0-24: 4400 (2340–7140) ngEq/mL*h
[1]; M12.8 value is sum of M12.8 and M13.2
  Mean (range) Circulating Radioactivity in Plasma Based on AUC0-24 (%): 27.5%
[1]; M12.8 value is sum of M12.8 and M13.2, listed as Encorafenib (LGX818)
  Mean (range) Circulating Radioactivity in Plasma Based on AUC0-24 (%): 27.5 (17.9–36.4) %
[2]; healthy subjects, 100 mg
  Variability of apparent oral clearance, this study: 37%
[2]; human, plasma, oral, 100 mg, plasma, GeoMean (GeoCV%), read-out: AUC0-24
  AUC(0-t): 3680 ng·h/mL
[2]; human, plasma, oral, 100 mg, plasma, GeoMean (GeoCV%), read-out: AUClast
  AUC(0-t): 3720 ng·h/mL
[2]; human, plasma, oral, 100 mg, plasma, Mean (SD), read-out: AUC0-24
  AUC(0-t): 3850 ng·h/mL
[2]; human, plasma, oral, 100 mg, plasma, Mean (SD), read-out: AUClast
  AUC(0-t): 3910 ng·h/mL
[2]; human, plasma, oral, 100 mg, plasma, Mean (SD)
  Vd/F: 235 L
[2]; human, plasma, oral, 100 mg, plasma, Median (Minimum–Maximum), read-out: AUC0-24
  AUC(0-t): 3570 ng·h/mL
[2]; human, plasma, oral, 100 mg, plasma, Median (Minimum–Maximum), read-out: AUClast
  AUC(0-t): 3600 ng·h/mL
[2]; human, plasma, oral, 100 mg, plasma, Median (Minimum–Maximum)
  Vd/F: 228 L
[2]; [5]
  AUC(0-inf): 3750 ng·h/mL
  Cmax: 1040 ng/mL
  half-life: 5.88 h
[2]; [6]
  Cmax: 1050 ng/mL
  half-life: 6.11 h
[2]; [7]
  AUC(0-inf): 3610 ng·h/mL
  Cmax: 1080 ng/mL
  half-life: 6.32 h
[2]; male, human, plasma, oral, 100 mg, plasma, GeoMean (GeoCV%)
  Vd/F: ~226 L
[2]; male, human, plasma, oral, 100 mg, plasma, Median (Minimum–Maximum), read-out: Tmax
  Tmax: 0.77 h
[2]; male, human, plasma, po, 100 mg, Mean (SD), n=4, 100 mg oral
  AUC(0-inf): 3940 ng·h/mL
[2]; plasma, GeoMean (GeoCV%)
  Vz/F: 226 (32.7) L
[2]; plasma, Mean (SD)
  CL/F: 27.9 (9.15) L/h
[2]; [8]
  CL/F: 28.4 (17.1–37.6) L/h
  Tmax: 0.767 (0.500–1.00) h
[3]
  Contribution of CYP2D6 to metabolism: 1%
[4]; single 100 mg oral dose
  Grade 2, 3 or 4 adverse events: No grade 2, 3 or 4 AEs were reported
[4]; [9]
  Subjects with AEs suspected to be related to the study drug: 50.0%
  Subjects with at least one adverse event: 75.0%
[4]; single-dose administration
  Laboratory evaluations, vital signs, ECG: no significant abnormalities
  Overall safety and tolerability: safe and well‐tolerated
